# From US20240131028A1, “CHEMOVACCINATION AGAINST PLASMODIUM INFECTION WITH SELECTIVE PLASMEPSIN X INHIBITORS” (Merck Sharp & Dohme LLC, priority 2021, published 2024)
# pEC50: −log10 of the molar value.
# System: ring stage parasites (Pf)
# Assay: Parasite lactate dehydrogenase (LDH) growth assay (Parasite Assay, PfLDH Assay)
# Format: cell-based, P. falciparum
# Conditions: Plasmodium falciparum, 72 h, Table 3; 72 hours growth, LDH readout; read-out: EC50
# Protocol: The parasite stock was maintained at 4% haematocrit in RPMI-Hepes media buffered with sodium bicarbonate and supplemented with 5% heat inactivated human serum and 0.5% albumax. […] On the day of assay set up, a blood smear of the parasite culture was Giemsa stained and counted. The parasitemia was adjusted to 0.7% rings and the haematocrit was diluted to 2% in RPMI-Hepes media buffered with sodium bicarbonate and supplemented with 5% heat inactivated human serum and 0.5% albumax. 30 μl of diluted parasites are then added into 10 μl of media+compound in pre-prepared Greiner TC assay plates. Parasite assay plates were placed in gassed humidified boxes in single layer and allowed to incubate at 37° C. for 72 hours. After 72 hours growth, assay plates were sealed with parafilm and frozen flat, in single file at −80° C. overnight. On the following day, assay plates were allowed to thaw at room temperature for 4 hours to which an LDH assay was performed to measure parasite growth.
row,SMILES,pEC50
1,CC1[C@H]([C@@H](c2cccnc2)N2C(=N)NC(C)(C)CC2=O)[C@H]1C(=O)N[C@H]1CC(C)(C)Oc2ccccc21 (some centres unmarked) [Example 57A],8.49
2,COCC[C@H]([C@H]1C[C@@H]1C(=O)N[C@@H]1CC(C)(C)Oc2c(C(F)(F)F)ccc(F)c21)N1C(=N)NC(C)(C)CC1=O [Example 114A],7.05
3,CC1(C)CC(=O)N([C@H](c2cccnc2)[C@H]2C[C@@H]2C(=O)N[C@@H]2CC(C)(C)Oc3c(C(F)(F)F)ccc(F)c32)C(=N)N1 [Example 115A],8.18
4,Cc1ccc2c(c1)OC(C)(C)C[C@H]2NC(=O)[C@H]1C[C@@H]1[C@@H](c1cccnc1)N1C(=N)NC(C)(C)CC1=O [Example 85B],9.05
5,CCC1(CC)CC(=O)N([C@H](c2cccnc2)[C@H]2C[C@@H]2C(=O)N[C@H]2CCOc3ccccc32)C(=N)N1 [Example 9],8.16
6,CC1(C)CC(=O)N(C[C@H]2C[C@@H]2C(=O)N[C@H]2CC(C3CC3)Oc3ccccc32)C(=N)N1 (some centres unmarked) [Example 140A],6.66
7,CC[C@]1(C)CC(=O)N([C@H](CCOC)[C@H]2C[C@@H]2C(=O)N[C@H]2CC(C)(C)Oc3ccccc32)C(=N)N1 [Example 64A],8.64
8,CC1(C)CC(=O)N([C@H](c2cncc(Cl)c2)[C@H]2C[C@@H]2C(=O)N[C@H]2C[C@H](C(F)(F)F)Oc3ccccc32)C(=N)N1 [Example 60A],9.30
9,CC1(C)CC(=O)N([C@H](c2cncc(Cl)c2)[C@H]2C[C@@H]2C(=O)N[C@@H]2c3ccccc3OC(C)(C)[C@H]2O)C(=N)N1 [Example 59],8.42
10,CCC1(CC)CC(=O)N([C@@H](c2cccnc2)[C@@H]2[C@@H](C(=O)N[C@H]3CC(C)(C)Oc4ccccc43)C2(C)C)C(=N)N1 [Example 48B],8.13
11,CC[C@]1(C)CC(=O)N([C@H](CCOC)[C@H]2C[C@@H]2C(=O)N[C@H]2C[C@H](C(F)(F)F)Oc3ccccc32)C(=N)N1 [Example 62B],9.10
12,CC1(C)CC(=O)N([C@H](c2cccc(C#N)c2)[C@H]2C[C@@H]2C(=O)N[C@H]2C[C@H](C(F)(F)F)Oc3ccccc32)C(=N)N1 [Example 52],9.00
13,CC1(C)CC(=O)N([C@H](c2cccnc2)[C@H]2C[C@@H]2C(=O)NC2CC(C)(C)Oc3cc(F)ccc32)C(=N)N1 (some centres unmarked) [Example 77A],8.77
14,COCC[C@H]([C@H]1C[C@@H]1C(=O)N[C@@H]1CC(C)(C)Oc2cc(OC)ccc21)N1C(=N)NC(C)(C)CC1=O [Example 70A],7.11
15,CC[C@]1(C)CC(=O)N([C@@H](CCOC)[C@H]2C[C@@H]2C(=O)N[C@H]2C[C@H](C(F)(F)F)Oc3ccccc32)C(=N)N1 [Example 62A],7.51
16,CC1(C)CC(=O)N([C@@H](c2ccc(C#N)cc2)[C@H]2C[C@@H]2C(=O)N[C@H]2C[C@H](C(F)(F)F)Oc3ccccc32)C(=N)N1 [Example 47A],6.81
17,COCC[C@H]([C@H]1C[C@@H]1C(=O)N[C@H]1CC(C)(C)Oc2cc(C)c(C)cc21)N1C(=N)NC(C)(C)CC1=O [Example 138A],8.13
18,CC1(C)CC(=O)N([C@@H](c2cncc(Cl)c2)[C@H]2C[C@@H]2C(=O)N[C@H]2C[C@H](C(F)(F)F)Oc3ccccc32)C(=N)N1 [Example 60B],7.00
19,CCC1(CC)CC(=O)N([C@H](c2cccnc2)[C@@H]2[C@@H](C(=O)N[C@H]3C[C@H](C(F)(F)F)Oc4ccccc43)C2(C)C)C(=N)N1 [Example 44B],9.05
20,CCC1(CC)CC(=O)N(C[C@H]2C(C)[C@@H]2C(=O)N[C@H]2C[C@@H](C(F)(F)F)Oc3ccccc32)C(=N)N1 (some centres unmarked) [Example 28A],7.92
21,Cc1ccc2c(c1)[C@@H](NC(=O)[C@H]1C[C@@H]1CN1C(=N)NC(C)(C)CC1=O)CC(C)(C)O2 [Example 128],6.55
22,CC1(C)CC(=O)N([C@H](c2cccnc2)[C@H]2C[C@@H]2C(=O)N[C@H]2CC(C)(C)Oc3ccccc32)C(=N)N1 [Example 26],8.33
23,COCC[C@H]([C@H]1C[C@@H]1C(=O)NC1CC2(CCC2)Oc2ccccc21)N1C(=N)NC(C)(C)CC1=O (some centres unmarked) [Example 131A],8.17
24,COCC[C@H]([C@H]1C[C@@H]1C(=O)N[C@H]1CC(C)(C)Oc2ccccc21)N1C(=N)N[C@](C)(C(C)C)CC1=O [Example 20],8.28
25,CC1(C)CC(=O)N(C[C@H]2C[C@@H]2C(=O)N[C@H]2CC(C)(C)Oc3cccc(Cl)c32)C(=N)N1 [Example 119],7.59
26,CC1(C)CC(=O)N([C@H](c2cccnc2)[C@H]2C[C@@H]2C(=O)N[C@@H]2c3ccccc3OC(C)(C)[C@H]2O)C(=N)N1 [Example 27],7.11
27,COCC[C@H]([C@H]1C[C@@H]1C(=O)N[C@@H]1CC(C)(C)Oc2c(F)cc(F)cc21)N1C(=N)NC(C)(C)CC1=O [Example 113A],7.72
28,COCC[C@H]([C@H]1C[C@@H]1C(=O)N[C@@H]1CC(C)(C)Oc2ccc(F)cc21)N1C(=N)NC(C)(C)CC1=O [Example 72A],7.96
29,CC[C@]1(C)CC(=O)N([C@H](c2cncc(F)c2)[C@H]2C[C@@H]2C(=O)N[C@H]2C[C@H](C(F)(F)F)Oc3ccccc32)C(=N)N1 [Example 68],9.52
30,CC(C)C1(C)CC(NC(=O)[C@H]2C[C@@H]2CN2C(=N)NC(C)(C)CC2=O)c2ccccc2O1 (some centres unmarked) [Example 79A],6.59

# Same assay, conditions: Plasmodium falciparum, 72 h, Table 4; 72 hours growth, LDH readout; read-out: EC50 (Table 4)
row,SMILES,pEC50
1,CCC1(CC)CC(=O)N([C@H](CCOC)[C@H]2C[C@@H]2C(=O)N[C@@H]2CC(C)(C)Oc3ccccc32)C(=N)N1 [Example 141],8.33

# Same assay, conditions: Table 3; 72 hours growth, LDH readout; read-out: EC50
row,SMILES,pEC50
1,COc1cccc2c1C(NC(=O)[C@H]1C[C@@H]1[C@@H](c1cccnc1)N1C(=N)NC(C)(C)CC1=O)CC(C)(C)O2 (some centres unmarked) [Example 96B],8.48
2,COc1ccc2c(c1)OC(C)(C)C[C@@H]2NC(=O)[C@H]1C[C@@H]1[C@H](c1cccnc1)N1C(=N)NC(C)(C)CC1=O [Example 65B],8.10
3,"COCC[C@H]([C@H]1C[C@@H]1C(=O)NC1CC(C)(C)Oc2cc(OC(F)(F)F)ccc21)N1C(=N)NC(C)(C)CC1=O (single isomer, unassigned) [Example 134A]",7.15
4,"CC(C)C1(C)CC(NC(=O)[C@H]2C[C@@H]2[C@@H](c2cccnc2)N2C(=N)NC(C)(C)CC2=O)c2ccccc2O1 (single isomer, unassigned) [Example 81D]",8.89
5,"CCC1(C)CC(NC(=O)[C@H]2C[C@@H]2[C@@H](c2cccnc2)N2C(=N)NC(C)(C)CC2=O)c2ccccc2O1 (single isomer, unassigned) [Example 105D]",9.05
6,"CCC1C[C@H](NC(=O)[C@H]2C[C@@H]2CN2C(=N)NC(C)(C)CC2=O)c2ccccc2O1 (single isomer, unassigned) [Example 133A]",6.68
7,COCC[C@H]([C@H]1C[C@@H]1C(=O)NC1CC2(CCC2)Oc2ccccc21)N1C(=N)NC(C)(C)CC1=O (some centres unmarked) [Example 131B],8.21
8,"CCC1(CC)CC(=O)N(CC2C(C(=O)N[C@H]3C[C@@H](C(F)(F)F)Oc4ccccc43)C2(F)F)C(=N)N1 (single isomer, unassigned) [Example 17B]",7.70
9,"COCC[C@H]([C@H]1C[C@@H]1C(=O)NC1CC(C)(COC)Oc2ccccc21)N1C(=N)NC(C)(C)CC1=O (single isomer, unassigned) [Example 82B]",7.24
10,"CC1(C)CC(=O)N([C@H](c2cccnc2)[C@H]2C[C@@H]2C(=O)NC2CC(C)(C)Oc3ccc(C(F)(F)F)cc32)C(=N)N1 (single isomer, unassigned) [Example 109B]",9.00
11,"COCC[C@H]([C@H]1C[C@@H]1C(=O)NC1CC(C)(C)Oc2cc(OC(F)(F)F)ccc21)N1C(=N)NC(C)(C)CC1=O (single isomer, unassigned) [Example 134B]",7.60
12,CC[C@@]1(C)CC(=O)N(C(c2cncc(F)c2)[C@H]2C[C@@H]2C(=O)N[C@H]2CC(C)(C)Oc3ccc(F)cc32)C(=N)N1 (some centres unmarked) [Example 69E],6.52
13,"CCC1(CC)CC(=O)N(C[C@H]2C(C)[C@@H]2C(=O)N[C@H]2c3ccccc3CC2(C)O)C(=N)N1 (single isomer, unassigned) [Example 29C]",6.95
14,"CC[C@]1(C)CC(=O)N(C(c2cncc(F)c2)[C@H]2C[C@@H]2C(=O)NC2c3ccccc3OC(C(F)(F)F)C2O)C(=N)N1 (single isomer, unassigned) [Example 104B]",7.66
15,"CCC1(CC)CC(=O)N(C(c2cccnc2)[C@H]2C(C)[C@@H]2C(=O)N[C@H]2C[C@H](C(F)(F)F)Oc3ccccc32)C(=N)N1 (single isomer, unassigned) [Example 55B]",6.74
16,CC1(C)CC(=O)N(C[C@H]2C[C@@H]2C(=O)NC2CC(C)(C)Oc3c(Cl)cc(Cl)cc32)C(=N)N1 (some centres unmarked) [Example 97B],6.66
17,"COCC1(C)CC(NC(=O)[C@H]2C[C@@H]2[C@@H](c2cccnc2)N2C(=N)NC(C)(C)CC2=O)c2ccccc2O1 (single isomer, unassigned) [Example 108C]",8.22

# Same assay, conditions: Table 4; 72 hours growth, LDH readout; read-out: EC50 (Table 4)
row,SMILES,pEC50
1,"CCC1(CC)CC(=O)N(C(CC(C)OC)[C@H]2C[C@@H]2C(=O)N[C@@H]2CC(C)(C)Oc3ccccc32)C(=N)N1 (single isomer, unassigned) [Example 143B]",8.62
2,"CCC1(CC)CC(=O)N(C(CC(C)OC)[C@H]2C[C@@H]2C(=O)N[C@H]2CC(C)(C)Oc3ccccc32)C(=N)N1 (single isomer, unassigned) [Example 142A]",8.72
